The source of these data is US12502380B2, “MrgprX2 antagonists for the treatment of inflammatory disorders” (Dermira, Inc., priority 2019, dated 2025).

The assay addresses T1, Human MrgprX2 (Homo sapiens, UniProt Q96LB1).
T1 construct: expressed in transfected cells
T1 sequence (Q96LB1 1-330): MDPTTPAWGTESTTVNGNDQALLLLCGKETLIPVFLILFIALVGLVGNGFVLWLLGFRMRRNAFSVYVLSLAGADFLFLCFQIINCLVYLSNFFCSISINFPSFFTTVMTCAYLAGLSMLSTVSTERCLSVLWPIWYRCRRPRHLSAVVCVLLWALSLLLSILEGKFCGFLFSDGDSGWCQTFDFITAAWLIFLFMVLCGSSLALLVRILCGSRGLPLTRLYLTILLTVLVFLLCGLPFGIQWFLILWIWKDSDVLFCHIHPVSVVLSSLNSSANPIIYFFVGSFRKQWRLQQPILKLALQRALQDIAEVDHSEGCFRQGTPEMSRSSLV
The experiment in a line: Human MrgprX2 antagonist FLIPR intracellular calcium mobilization assay. It is filed as cell-based. As to conditions: antagonist activity, recombinant hMrgpMRGPRX2 expressing cells, read-out: Human MrgprX2 Antagonist pIC50 (converted). The source says:
Potent and selective hMrgpMRGPRX2 compounds have been generated from compounds identified during a high throughput screening (HTS) campaign and followed up with cycles of structure activity based medicinal chemistry efforts. These compounds were characterized in recombinant hMrgpMRGPRX2 expressing cells for their antagonist activity and the potency was confirmed in the human mast cell line LAD-2, where the target is endogenously expressed. The assays used to determine potencies are functional read-out looking at intracellular calcium mobilization using the FLIPR™ technology. In these FLIPR assays, we test the identified compounds using recombinant cellular systems expressing mouse MrgprB2, mouse MrgprA1, gerbil MrgpMRGPRX2 orthologue, Chinese hamster MrgpMRGPRX2 orthologue and cynomolgus monkey MrgpMRGPRX2 orthologue, respectively for orthologue activity.

On to `CC1(C(=O)Nc2ncc(Cc3cccc(F)c3)s2)CCOCC1` [Compound E007], for which the IC50 was 100 nM.
Turning to `CC1(C(=O)Nc2ncc(Oc3ccccc3)s2)CCOCC1` [Compound E020], the IC50 is 126 nM.
The same measure for `CC(C)C(=O)Nc1ncc(Cc2cc(F)cc(F)c2)s1` [Compound E041]: 2 nM; for `C[C@]1(C(=O)Nc2ncc(Cc3cccc(F)c3)s2)CCCN1S(N)(=O)=O` [Compound E063]: 3.16 nM.
Next, `C[C@H](C(=O)Nc1ncc(Cc2cccc(F)c2)s1)N(C)S(N)(=O)=O` [Compound E068]: 631 nM.
Next, `CCN(C[C@H](C)O)C(=O)Nc1cnc(Oc2cc(F)cc(F)c2)s1` [Compound E215]: 7940 nM; `C[C@H](O)CN(C)C(=O)Nc1ncc(Cc2ccc(C#N)cc2)s1` [Compound E145]: 3160 nM.
`NS(=O)(=O)N1CCC[C@@H]1C(=O)Nc1ncc(Oc2ccccc2)s1` [Compound E086, (2R)—N-(5-phenoxythiazol-2-yl)-1-sulfamoyl-pyrrolidine-2-carboxamide]: the IC50 is 15.8 nM.
As to `C[C@H](O)CN(C)C(=O)Nc1ncc(Cc2ccc(F)cc2F)s1` [Compound E141], the IC50 was 50.1 nM.
The same measure for `CC(C)(C)OC(=O)N1CCC(C)(C(=O)Nc2ncc(Cc3ccccc3F)s2)CC1` [Compound E018]: 316 nM.
The same measure for `O=C(Nc1ncc(Cc2cccc(F)c2)s1)C1CCCC1O` (stereo not drawn) [Compound E038]: 1580 nM; for `CCN(C[C@H](C)O)C(=O)Nc1ncc(Cc2cccc(F)c2)s1` [Compound E117]: 0.631 nM; for `C[C@H](O)CN(C)C(=O)Nc1ncc(CC2CCCC2)s1` [Compound E138]: 2000 nM.
The same measure for `CC1(C(=O)Nc2ncc(Cc3cc(F)ccc3F)s2)COC1` [Compound E096]: 50.1 nM; for `CN(CC1(O)CC1)C(=O)Nc1ncc(Cc2cccc(F)c2)s1` [Compound E122]: 6.31 nM; for `CC1(C(=O)Nc2ncc(Oc3cncc(F)c3)s2)CCOCC1` [Compound E080]: 501 nM.
Take `CN(CC(O)CO)C(=O)Nc1ncc(Cc2cccc(F)c2)s1` (stereo not drawn) [Compound E106]: the IC50 was 3160 nM.
Next, `C[C@@H](O)CN(C)C(=O)Nc1ncc(Cc2ccccc2F)s1` [Compound E103]: 1260 nM; `N#Cc1cc(F)cc(Oc2cnc(NC(=O)[C@H]3CCCN3S(N)(=O)=O)s2)c1` [Compound E090, (2R)—N-[5-(3-cyano-5-fluoro-phenoxy)thiazol-2-yl]-1-sulfamoyl-pyrrolidine-2-carboxamide]: 31.6 nM.
The same measure for `CCN(C[C@H](C)O)C(=O)Nc1ncc(Oc2ccc(F)nc2)s1` [Compound E170]: 3.98 nM.
The same measure for `CC(C)(F)C(=O)Nc1ncc(Cc2ccccc2F)s1` [Compound E021]: 251 nM; for `C[C@]1(C(=O)Nc2ncc(Cc3cccc(F)c3)s2)CCCN1` [Compound E061, (2R)—N-[5-[(3-fluorophenyl)methyl]thiazol-2-yl]-2-methyl-pyrrolidine-2-carboxamide]: 2000 nM.
For the compound `CC(C)NC(=O)c1cc(Cc2cc(F)cc(F)c2)on1` [Compound E221, 5-[(3,5-difluorophenyl)methyl]-N-isopropyl-isoxazole-3-carboxamide], the IC50 was 6310 nM.
The same measure for `CCN(C[C@H](C)O)C(=O)Nc1ncc(Oc2cccnc2F)s1` [Compound E203]: 100 nM; for `CCN(C[C@H](C)O)C(=O)Nc1ncc(Oc2cc(F)cc(C#N)c2)s1` [Compound E188]: 1.26 nM; for `CC1(C(=O)Nc2ncc(CC3CCCC3)s2)CCOCC1` [Compound E097]: 2000 nM.
Next, `CCN(C[C@H](C)O)C(=O)Nc1ncc(Oc2cc(C)cc(C#N)c2)s1` [Compound E206]: 6.31 nM; `CC(C)C(=O)Nc1ncc(Cc2cccc(F)c2F)s1` [Compound E094]: 7.94 nM.
The same measure for `CCN(C[C@H](C)O)C(=O)Nc1ncc(Oc2ccnc(F)c2)s1` [Compound E185]: 2 nM.
Consider `O=C(Nc1ncc(Cc2ccccc2F)s1)C1CCOC1` (stereo not drawn) [Compound E008], for which the IC50 was 3980 nM.
The same measure for `C[C@H](O)CN(C)C(=O)Nc1ncc(Oc2ccc(F)cc2)s1` [Compound E151]: 2 nM.
The same measure for `CC(C)(C)OC(=O)N1CCC[C@]1(C)C(=O)Nc1ncc(Cc2cccc(F)c2)s1` [Compound E037, tert-butyl (2R)-2-[[5-[(3-fluorophenyl)methyl]thiazol-2-yl]carbamoyl]-2-methyl-pyrrolidine-1-carboxylate]: 251 nM; for `CN1CCC[C@@H]1C(=O)Nc1ncc(Cc2cccc(F)c2)s1` [Compound E054, (2R)—N-[5-[(3-fluorophenyl)methyl]thiazol-2-yl]-1-methyl-pyrrolidine-2-carboxamide]: 39.8 nM; for `CCN(C[C@H](C)O)C(=O)Nc1ncc(Oc2ccc(C#N)c(F)c2)s1` [Compound E163]: 1 nM.
The same measure for `C[C@@H](CO)C(=O)Nc1ncc(Cc2cccc(F)c2)s1` [Compound E031]: 2000 nM; for `C[C@H](O)CN(C)C(=O)Nc1ncc(Oc2ccc(C(F)(F)F)cc2)s1` [Compound E160]: 2510 nM.
As to `CC1(C(=O)Nc2ncc(Oc3cccc(Cl)c3)s2)CCOCC1` [Compound E079], the IC50 is 3.98 nM.
Next, `CCN(C[C@H](C)O)C(=O)Nc1ncc(Oc2cccnc2)s1` [Compound E166]: 100 nM; `CC(C)C(=O)Nc1ncc(Nc2ccccc2)s1` [Compound E072]: 1260 nM; `CC(C)C(=O)Nc1cnc(Cc2cccc(F)c2)s1` [Compound E216, N-[2-[(3-fluorophenyl)methyl]thiazol-5-yl]-2-methyl-propanamide]: 7940 nM.
Next, `C[C@]1(C(=O)Nc2ncc(Oc3cccc(F)c3)s2)CCOC1` (single isomer, unassigned) [Compound E084, N-[5-(3-fluorophenoxy)thiazol-2-yl]-3-methyl-tetrahydrofuran-3-carboxamide]: 3.16 nM.
As for `CCN(C[C@H](C)O)C(=O)Nc1ncc(Oc2cncc(C#N)c2)s1` [Compound E173], the IC50 is 31.6 nM.
The same measure for `CN1CCC[C@H]1C(=O)Nc1ncc(Cc2cccc(F)c2)s1` [Compound E058, (2S)—N-[5-[(3-fluorophenyl)methyl]thiazol-2-yl]-1-methyl-pyrrolidine-2-carboxamide]: 126 nM.
Next, `COC(C)(C)C(=O)Nc1ncc(Cc2ccccc2F)s1` [Compound E019]: 251 nM; `CN(CC(O)C(F)(F)F)C(=O)Nc1ncc(Cc2cccc(F)c2)s1` (stereo not drawn) [Compound E105]: 15.8 nM.
Next, `CC(C)C(=O)Nc1ncc(Oc2cccnc2)s1` [Compound E071]: 6310 nM.
For the compound `CCN(C[C@H](C)O)C(=O)Nc1ncc(Oc2ccccc2)s1` [Compound E155], the IC50 is 0.631 nM.
The same measure for `C[C@H](O)CN(C)C(=O)Nc1ncc(Oc2cccc(C(F)(F)F)c2)s1` [Compound E182]: 20 nM; for `CN(CC(C)(C)O)C(=O)Nc1ncc(Cc2cccc(F)c2)s1` [Compound E108]: 1.58 nM; for `C[C@H](O)CN(C)C(=O)Nc1ncc(Oc2cncc(C(F)(F)F)c2)s1` [Compound E179]: 3980 nM.
The same measure for `C[C@H](O)CN(C)C(=O)Nc1ncc(Oc2ccccc2C#N)s1` [Compound E174]: 631 nM; for `O=C(Nc1ncc(Oc2ccccc2)s1)[C@H]1CCCN1` [Compound E085, (2R)—N-(5-phenoxythiazol-2-yl)pyrrolidine-2-carboxamide]: 2510 nM; for `CCN(C[C@H](C)O)C(=O)Nc1ncc(Oc2ccc(CC#N)cc2)s1` [Compound E213]: 1260 nM.
Next, `C[C@H](O)CN(C)C(=O)Nc1ncc(Cc2c(F)cccc2F)s1` [Compound E142]: 1580 nM; `NC(=O)[C@@H]1CCCN1C(=O)Nc1ncc(Cc2cccc(F)c2)s1` [Compound E131]: 6310 nM.
With `C[C@H](O)CN(C)C(=O)Nc1ncc(Oc2ccc(F)c(C#N)c2)s1` [Compound E165], the IC50 is 20 nM.
With `O=C(Nc1ncc(Cc2cccc(F)c2)s1)N1CCOC[C@@H]1CO` [Compound E124], the IC50 is 794 nM.
The same measure for `CC1(C(=O)Nc2ncc(Cc3cc(F)cc(F)c3)s2)CCOC1` (stereo not drawn) [Compound E046, N-[5-[(3,5-difluorophenyl)methyl]thiazol-2-yl]-3-methyl-tetrahydrofuran-3-carboxamide]: 5.01 nM; for `C[C@H](O)CN(C)C(=O)Nc1ncc(Cc2cc(F)ccc2F)s1` [Compound E136]: 3.98 nM; for `C[C@H](O)CN(C)C(=O)Nc1ncc(Oc2cc(C#N)ccc2F)s1` [Compound E194]: 501 nM.
Consider `CCN(C[C@H](C)O)C(=O)Nc1ncc(Oc2ccc(C#N)cc2)s1` [Compound E147, 3-[5-(4-cyanophenoxy)thiazol-2-yl]-1-ethyl-1-[(2S)-2-hydroxypropyl]urea], for which the IC50 was 3.16 nM.
Next, `CC(C)(C#N)C(=O)Nc1ncc(Cc2ccccc2F)s1` [Compound E012]: 631 nM.
Next, `CCN(C[C@H](C)O)C(=O)Nc1nc2ccccc2s1` [Compound E129]: 1000 nM.
